Tested on: Human immunodeficiency virus
Assay: Antiviral activity against HIV infected in human 1A2 cells assessed as protection against virus-induced cytopathic effect by measuring cell viability at 5 ug/ml after 96 hrs by MTT assay relative to control
Format: functional

Structure (SMILES) | Activity
O=C(NCCc1ccccc1)NCCc1ccccc1C(=O)NCCc1ccccc1C(=O)NCCc1ccccc1C(=O)NCCc1ccccc1 | 17 - 48%
COC(=O)NCCc1ccccc1C(=O)NCCc1ccccc1 | 17 - 48%
O=C(NCCc1ccccc1C(=O)NCCc1ccccc1)NCCc1ccccc1C(=O)NCCc1ccccc1 | 17 - 48%
COC(=O)NCCc1ccccc1C(=O)NCCc1ccccc1C(=O)NCCc1ccccc1C(=O)NCCc1ccccc1 | 17 - 48%
O=C(NCCc1ccccc1C(=O)NCCc1ccccc1)NCCc1ccccc1C(=O)NCCc1ccccc1C(=O)NCCc1ccccc1 | 17 - 48%
O=C(NCCc1ccccc1)NCCc1ccccc1C(=O)NCCc1ccccc1C(=O)NCCc1ccccc1 | 17 - 48%
COC(=O)NCCc1ccccc1C(=O)NCCc1ccccc1C(=O)NCCc1ccccc1 | 17 - 48%
COC(=O)NCCc1ccccc1C(=O)NCCc1ccccc1C(=O)NCCc1ccccc1C(=O)NCCc1ccccc1C(=O)NCCc1ccccc1 | 17 - 48%

— ChEMBL document CHEMBL4190205 (2017)
